Data from patent US4268505A, “Pharmaceutical composition comprising a nitrogen-containing polysaccharide and an antibiotic agent, and a method of treating an infectious disease therewith” (priority 1979, dated 1981).

How the values were obtained:
[1] = system: Shigella sonnei; experiment: Minimum growth inhibiting concentration, agar plate method; format: cell-based; details: for Minimum growth inhibiting concentration: strain resistant to the respective drug
[2] = system: kanamycin-resistant strain of Shigella sonnei; experiment: Therapeutical treatment of mice infected with kanamycin-resistant Shigella sonnei (Example 10); format: in vivo, male ICR-JCL mice; details: only kanamycin 20 mg/kg i.p., 7th day
Protocol: Similar experiments of therapeutical treatment as in Example 9 was performed by using the present substance obtained by the procedures described in Example 1.
A kanamycin-resistant strain of Shigella sonnei obtained by the procedures described in Example 1 was intraperitoneally inoculated to the two groups (each group comprising 10 animals) of male ICR-JCL mice at a rate of 1×10^8 cells/mouse, and after 2 hours of the inoculation, 20 mg/kg of kanamycin was intraperitoneally administered to the mice of one group, and 100 mg/kg of the present substance and 20 mg/kg of kanamycin were almost simultaneously administered to the mice of another group. After keeping the mice under usual conditions for 6 days. Their rate of survival was observed on 7th day.

[3] = system: Enterobacter aerogenes; experiment: Minimum growth inhibiting concentration, agar plate method; format: cell-based; details: for Minimum growth inhibiting concentration: strain resistant to the respective drug
[4] = system: Escherichia coli; experiment: as above; format: cell-based; details: for Minimum growth inhibiting concentration: strain resistant to the respective drug
Protocol: (§1) The drug-resistant strains of bacterial species were obtained in the manner described below according to the concentration gradient plate culture (see "Chemotherapeutics and Resistant Bacteria", 1970, By Chikara Watanabe, Asakura Shoten).
(§2) The agar plates with drug concentration gradient ranging from 10 to 100 μg/ml were prepared, and each strain of the bacterial species to be tested was streaked or smeared. These plates were kept at 37° C. for several days and the colony formed in the high concentration area was isolated and again similarly inoculated to the plates. Such operation was repeated several times to obtain the bacterial strains resistant to the respective drugs.
(§3) The drug sensitivity of the drug-resistant strains and that of the original strains (sensitive strains) were compared by way of the minimum growth inhibiting concentration (hereinafter abbreviated as MIC) according to the Standard Method of the Japanese Chemotherapeutical Association (see "Chemotherapy" Vol. 22, No. 6, 1126 (1974), by MIC Determination Method Reform Committee). More specifically, double diluted systems of each drug were prepared and they were mixed with the heart-infusion agar medium (Nippon Eiyo Kagaku Co., Ltd.) to form the agar plates. Then a loopful of each strain, which had been cultured at 37° C. in Trypto-soy bouillon (Nippon Eiyo Kagaku Co., Ltd.) for 18 hr. was smeared on each the plate, and after culturing for 18 hr. at 37° C., the growth of the strain on each plate was examined.
(§4) MIC has apparently been reduced to half the level or less before addition of the present substance as will be seen in Table 3 of EXAMPLE 1. The amount of the present substance added is more than 10 μg/ml, preferably more than 100 μg/ml. The pH of the medium was maintained at 7.2±0.1 so that MIC would not be affected by pH of the medium.
(§5) Specimens of the drug-resistant bacterial strain were obtained according to the aforementioned concentration-gradient plate culture by using Staphylococcus aureus, Streptococcus faecalis, Escherichia coli, Salmonella enteritidis, Klebsiella pneumoniae and Pseudomonas aeruginosa. The MICs of the original bacterial strains and those of the bacterial strains which have developed resistance to the respective antibiotics are summarized in Table 2.

[5] = system: streptomycin resistant strain of Klebsiella pneumoniae; experiment: Therapeutical test in mice infected with streptomycin-resistant Klebsiella pneumoniae (Example 7); format: in vivo, male ICR-JCL mouse; details: streptomycin singly 100 mg/kg i.p., 6 days after administration
Protocol: The streptomycin resistant strain of Klebsiella pneumoniae was obtained by the procedure of Exampe 1 and 0.25 ml of a Trypto-soy bouillon (see Example 2) containing 5% of mucin and the bacterial strain was intraperitoneally inoculated to each mouse of 2 groups of male ICR-JCL mouse, the group consisting of 10 mice at the rate of 1×10^8 cells per mouse. Three hours after this inoculation, 100 mg/kg of streptomycin was intraperitoneally administered. Another group was further given 120 mg/kg of the present substance, obtained by the description in Example 6, via intraperitoneal administration. The survival rate 6 days after administration was 50% in the group where streptomycin was used singly, but it was as high as 80% in the group where the present substance was used with streptomycin.

[6] = system: Klebsiella pneumoniae; experiment: Minimum growth inhibiting concentration, agar plate method; format: cell-based; details: for Minimum growth inhibiting concentration: strain resistant to the respective drug
Protocol: as §1, §2, §3
(§6) The amount of the present substance added is more than 10 μg/ml, preferably more than 100 μg/ml. The pH of the medium was maintained at 7.2±0.1 so that MIC would not be affected by pH of the medium.
(§7) Specimens of the drug-resistant bacterial strain were obtained according to the aforementioned concentration-gradient plate culture by using Staphylococcus aureus, Streptococcus faecalis, Escherichia coli, Salmonella enteritidis, Klebsiella pneumoniae and Pseudomonas aeruginosa.

[7] = system: Staphylococcus aureus; experiment: as above; format: cell-based; details: for Minimum growth inhibiting concentration: strain resistant to the respective drug
Protocol: as §1, §2, §3, §6, §7

[8] = system: Salmonella enteritidis; experiment: as above; format: cell-based; details: for Minimum growth inhibiting concentration: strain resistant to the respective drug
Protocol: as §1, §2, §3, §4, §5

[9] = system: chloramphenicol-resistant strain of Salmonella enteritidis; experiment: Therapeutical test in mice infected with chloramphenicol-resistant Salmonella enteritidis (Example 6); format: in vivo, male ICR-JCL mouse; details: chloramphenicol alone 50 mg/kg i.p., 5 days after administration
Protocol: The following experiment was then carried out on the present substance having the above-mentioned properties.
The chloramphenicol-resistant strain of Salmonella enteritidis were obtained as in Example 1.
A quarter milli-liter of suspension of the aforementioned chloramphenicol-resistant bacterial strain in Tryptosoy-bouillon (see Example 2) including 5% of mucin was intraperitoneally inoculated to each mouse of 5 groups of male ICR-JCL mouse, the group consisting of 10 mice. The inoculum was 1×10^8 cells/mouse. Twenty five hours after the inoculation, 50 mg/kg of chloramphenicol was administered intraperitoneally. 500 mg/kg of the present substance was further given orally to another group. The rate of survival 5 days after the administration was 40% in the group where chloramphenicol alone was administered, while it was 80% in the group where the antibiotic was given in combination with the present substance.

[10] = system: Streptococcus faecalis resistant to erythromycin; experiment: Therapeutical treatment of mice infected with erythromycin-resistant Streptococcus faecalis (Example 9); format: in vivo, male ICR-JCL mice; details: only erythromycin 50 mg/kg oral, 7th day
Protocol: Experiments of therapeutical treatment of animals infected with an erythromycin-resistant bacterial strain were carried out using the present substance, i.e., a nitrogen-containing polysaccharide prepared by the procedures described in Example 1.
After keeping the mice under usual conditions for 6 days, the rate of survival of each mouse was observed on 7th day.

[11] = system: Streptococcus faecalis; experiment: Minimum growth inhibiting concentration, agar plate method; format: cell-based; details: for Minimum growth inhibiting concentration: strain resistant to the respective drug
Protocol: as §1, §2, §3, §4, §5

[12] = system: colistin-resistant strain of Pseudomonas aeruginosa; experiment: Therapeutical test in mice infected with colistin-resistant Pseudomonas aeruginosa (Example 8); format: in vivo, male ICR-JCL mice; details: single colistin 190 mg/kg i.p., 6 days after administration
Protocol: A quarter milli-liter of a suspension of the colistin-resistant strain of Pseudomonas aeruginosa cultured by the same procedure in Example 1 in Trypto-soy bouillon (see Example 2) including 5% of mucin was intraperitoneally inoculated to each mouse of 2 groups of male ICR-JCL mice (body weight: 22±1 g, 10 mice a group) at the rate of 1×10^8 cells/mouse. […] The present substance obtained by the same procedure as in Example 6 was also orally administered at a dose of 1,500 mg/kg.

[13] = system: Pseudomonas aeruginosa; experiment: Minimum growth inhibiting concentration, agar plate method; format: cell-based; details: for Minimum growth inhibiting concentration: strain resistant to the respective drug
Protocol: as §1, §2, §3, §6, §7

[14] = strain resistant to the respective antibiotic (Table 2)
[15] = present substance added at 1000 μg/ml
[16] = present substance not added (Table 3)
[17] = present substance added at 100 μg/ml

Molecule | Minimum growth inhibiting concentration (MIC) ([4]; original strain) | Minimum growth inhibiting concentration (MIC) [4, 14] | Minimum growth inhibiting concentration [4, 16] | Minimum growth inhibiting concentration (MIC) ([6]; original strain) | Minimum growth inhibiting concentration (MIC) [6, 14] | Minimum growth inhibiting concentration [6, 16] | Minimum growth inhibiting concentration (MIC) ([7]; original strain) | Minimum growth inhibiting concentration (MIC) [7, 14] | Minimum growth inhibiting concentration (MIC) ([8]; original strain) | Minimum growth inhibiting concentration (MIC) [8, 14] | Minimum growth inhibiting concentration [7, 16] | other results
NC[C@H]1O[C@H](O[C@H]2[C@H](O)[C@@H](O[C@H]3O[C@H](CO)[C@@H](O)[C@H](N)[C@H]3O)[C@H](N)C[C@@H]2N)[C@H](O)[C@@H](O)[C@@H]1O [KM, Kanamycin] | 6.3 µg/mL | 200 µg/mL | 200 µg/mL | – | – | – | – | – | – | – | – | Minimum growth inhibiting concentration (MIC) ([1]; original strain): 3.1 µg/mL; Minimum growth inhibiting concentration (MIC) [1, 14]: 50 µg/mL; Minimum growth inhibiting concentration [1, 15]: 12.5 µg/mL; Minimum growth inhibiting concentration [1, 16]: 50 µg/mL; rate of survival [2]: 30%; Minimum growth inhibiting concentration (MIC) ([3]; original strain): 3.1 µg/mL; Minimum growth inhibiting concentration (MIC) [3, 14]: 100 µg/mL; Minimum growth inhibiting concentration [3, 15]: 12.5 µg/mL; Minimum growth inhibiting concentration [3, 16]: 100 µg/mL; Minimum growth inhibiting concentration [4, 15]: 50 µg/mL
[H]/N=C(/N)N[C@H]1[C@H](O)[C@@H](O)[C@H](O[C@@H]2O[C@@H](C)[C@](O)(C=O)[C@H]2O[C@@H]2O[C@@H](CO)[C@H](O)[C@@H](O)[C@@H]2NC)[C@@H](N/C(N)=N\[H])[C@@H]1O [SM, Streptomycin] | 3.1 µg/mL | 100 µg/mL | 100 µg/mL | 1.6 µg/mL | 100 µg/mL | 100 µg/mL | 1.6 µg/mL | > 100 µg/mL | 25 µg/mL | > 100 µg/mL | – | survival rate [5]: 50%; Minimum growth inhibiting concentration [6, 15]: 25 µg/mL; Minimum growth inhibiting concentration [4, 15]: 25 µg/mL
O=C(N[C@H](CO)[C@H](O)c1ccc([N+](=O)[O-])cc1)C(Cl)Cl [CP, Chlorampheniocol] | 1.6 µg/mL | 50 µg/mL | 50 µg/mL | 0.8 µg/mL | 25 µg/mL | 25 µg/mL | 3.1 µg/mL | 25 µg/mL | 0.8 µg/mL | 12.5 µg/mL | 25 µg/mL | rate of survival [9]: 40%; Minimum growth inhibiting concentration [6, 17]: 6.3 µg/mL; Minimum growth inhibiting concentration [7, 17]: 6.3 µg/mL; Minimum growth inhibiting concentration [4, 17]: 12.5 µg/mL; Minimum growth inhibiting concentration [8, 17]: 3.2 µg/mL; Minimum growth inhibiting concentration [8, 16]: 12.5 µg/mL
CC[C@H]1OC(=O)[C@H](C)[C@@H](O[C@H]2C[C@@](C)(OC)[C@@H](O)[C@H](C)O2)[C@H](C)[C@@H](O[C@@H]2O[C@H](C)C[C@H](N(C)C)[C@H]2O)[C@](C)(O)C[C@@H](C)C(=O)[C@H](C)[C@@H](O)[C@]1(C)O [EM, Erythromycin] | > 100 µg/mL | – | – | – | > 100 µg/mL | – | 0.4 µg/mL | – | > 100 µg/mL | – | – | rate of survival [10]: 50%; Minimum growth inhibiting concentration [7, 15]: 3.2 µg/mL
CN(C)[C@@H]1C(O)=C(C(N)=O)C(=O)[C@@]2(O)C(O)=C3C(=O)c4c(O)cccc4[C@@](C)(O)[C@H]3C[C@@H]12 [TC, Tetracycline] | 3.1 µg/mL | 25 µg/mL | 25 µg/mL | 1.6 µg/mL | 25 µg/mL | 25 µg/mL | 0.8 µg/mL | 25 µg/mL | 1.6 µg/mL | 12.5 µg/mL | 25 µg/mL | Minimum growth inhibiting concentration [6, 17]: 12.5 µg/mL; Minimum growth inhibiting concentration [7, 17]: 3.2 µg/mL; Minimum growth inhibiting concentration (MIC) ([11]; original strain): 0.4 µg/mL; Minimum growth inhibiting concentration (MIC) [11, 14]: 25 µg/mL; Minimum growth inhibiting concentration [11, 17]: 6.3 µg/mL; Minimum growth inhibiting concentration [11, 16]: 25 µg/mL; Minimum growth inhibiting concentration [4, 17]: 6.3 µg/mL; Minimum growth inhibiting concentration [8, 17]: 6.3 µg/mL; Minimum growth inhibiting concentration [8, 16]: 12.5 µg/mL
Colistin [CL] | – | – | – | – | – | – | – | – | – | – | – | rate of survival [12]: 40%; Minimum growth inhibiting concentration (MIC) [13, 14]: 200 µg/mL; Minimum growth inhibiting concentration [13, 15]: 100 µg/mL; Minimum growth inhibiting concentration [13, 16]: 200 µg/mL
CC1(C)S[C@@H]2[C@H](NC(=O)Cc3ccccc3)C(=O)N2[C@H]1C(=O)O [PG, Penicillin G] | 12.5 µg/mL | > 100 µg/mL | – | 6.3 µg/mL | > 100 µg/mL | – | 0.025 µg/mL | 12.5 µg/mL | 6.3 µg/mL | > 100 µg/mL | 12.5 µg/mL | Minimum growth inhibiting concentration [7, 15]: 1.6 µg/mL
